Test results: patent publication US10143700B2, “Nanoparticle formulations for delivering multiple therapeutic agents” (Amrita Vishwa Vidyapeetham University, priority 2013, dated 2018)

Columns and labels:
HepG2 cells = assay: Annexin V/PI apoptosis assay (confocal imaging and flow cytometry); format: cell-based; conditions: for apoptosis (apoptotic cells by flow cytometry): 5 μM sorafenib and/or 0.5 μM Dox
Protocol: Apoptosis studies: In the next step, the mode of cell death using Annexin V/PI apoptosis assay was investigated. […] The apoptotic cells using flow cytometry were also quantified. […] Even after combining both the drugs (5 μM sorafenib (5S) with 0.5 μM Dox (0.5D)), a maximum of only ˜60% apoptosis was registered (FIG. 15D). In contrast, as separate nanoformulations, the nano-shell (containing 5 μM sorafenib, (5AST)) (FIG. 15F), and the nano-core (containing 0.5 μM Dox, (0.5PD)) (FIG. 15G) have shown slight improvement in apoptosis (˜39% by shell, and ˜61% by core). After combining the two in a core-shell targeted fashion, excellent apoptosis was registered in ˜91% cells (FIG. 15H).

TfR = assay: Transferrin receptor expression in HepG2 cells by flow cytometry; format: cell-based
Protocol: Transferrin receptor expression and cellular uptake: In the next step, the expression of TfR in HepG2 cells was studied using flow cytometry. […] After creating an iron deficient microenvironment by treating the cells with 100 μM DFO, the number of the TfR-expressing cells increased to ˜89% (FIG. 13C). […] Following that, intracellular uptake of the core-shell nanoparticles in cancer cells was investigated. […] After creating iron-deficient microenvironment, the uptake was further increased to ˜94% (FIG. 13G) due to the increase in the number of TfRexpressing cells. Upon addition of iron-loaded transferrin, the uptake was dropped to ˜69% due to the saturation of TfR expression in these cells (FIG. 13H).

Compound: CC(=O)N(O)CCCCCNC(=O)CCC(=O)N(O)CCCCCNC(=O)CCC(=O)N(O)CCCCCN [DFO]
- viability of TfR overexpressing cells (HepG2 cells; pretreatment with 100 μM DFO, FIG. 15E): did not affect the viability
- number of TfR-expressing cells (TfR; HepG2 cells treated with 100 μM DFO (iron deficient microenvironment), ~76% before iron chelation): ~89%

Compound: COc1cccc2c1C(=O)c1c(O)c3c(c(O)c1C2=O)C[C@@](O)(C(=O)CO)C[C@@H]3O[C@H]1C[C@H](N)[C@H](O)[C@H](C)O1 [Dox, doxorubicin]
- apoptosis (apoptotic cells by flow cytometry) (HepG2 cells): ~53%

Compound: CNC(=O)c1cc(Oc2ccc(NC(=O)Nc3ccc(Cl)c(C(F)(F)F)c3)cc2)ccn1 [sorafenib]
- apoptosis (apoptotic cells by flow cytometry) (HepG2 cells): ~38%

Compound: holotransferrin: iron-loaded transferrin
- number of TfR-expressing cells (TfR; HepG2 cells, upon addition of iron-loaded transferrin (holotransferrin)): ~42%
